Values of other authors in patent US20050101642A1, “Chemical complex comprising a pyridine carboxy derivative and an H2 histamine receptor antagonist” (Astion Development ApS, priority 2000, published 2005).

Biological target: poly(ADP-ribose)polymerase (Homo sapiens, UniProt P09874)
Sequence (P09874 whole entry): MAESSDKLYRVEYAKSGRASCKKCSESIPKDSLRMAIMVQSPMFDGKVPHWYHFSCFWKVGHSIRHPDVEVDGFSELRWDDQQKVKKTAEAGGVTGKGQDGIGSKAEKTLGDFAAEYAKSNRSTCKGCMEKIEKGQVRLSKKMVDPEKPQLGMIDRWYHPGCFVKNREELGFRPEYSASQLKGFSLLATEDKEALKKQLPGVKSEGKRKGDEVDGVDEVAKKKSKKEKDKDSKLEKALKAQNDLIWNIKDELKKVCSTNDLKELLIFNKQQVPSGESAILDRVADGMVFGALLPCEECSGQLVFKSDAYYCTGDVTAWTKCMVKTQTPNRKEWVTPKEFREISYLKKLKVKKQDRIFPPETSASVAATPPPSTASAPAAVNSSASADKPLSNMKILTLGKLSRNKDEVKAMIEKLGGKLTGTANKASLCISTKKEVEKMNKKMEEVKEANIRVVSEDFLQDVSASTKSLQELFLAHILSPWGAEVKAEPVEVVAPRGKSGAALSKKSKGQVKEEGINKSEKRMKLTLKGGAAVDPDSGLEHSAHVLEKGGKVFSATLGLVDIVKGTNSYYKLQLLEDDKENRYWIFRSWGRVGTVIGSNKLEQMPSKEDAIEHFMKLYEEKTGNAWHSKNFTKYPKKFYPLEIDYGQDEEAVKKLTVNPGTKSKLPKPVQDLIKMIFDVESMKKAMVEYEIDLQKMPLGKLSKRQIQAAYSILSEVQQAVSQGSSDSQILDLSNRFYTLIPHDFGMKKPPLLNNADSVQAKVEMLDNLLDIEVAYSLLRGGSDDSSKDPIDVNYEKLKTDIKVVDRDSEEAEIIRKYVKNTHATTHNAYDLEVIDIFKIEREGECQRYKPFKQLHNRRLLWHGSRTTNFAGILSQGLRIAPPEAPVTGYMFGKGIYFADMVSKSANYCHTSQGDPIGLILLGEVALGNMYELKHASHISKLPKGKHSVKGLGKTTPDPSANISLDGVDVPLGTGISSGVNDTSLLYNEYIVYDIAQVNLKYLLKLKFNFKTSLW

## NC(=O)c1cccnc1 [Niacinamide]
  inhibition of poly(ADP-ribose)polymerase: potent inhibitor
